Patent publication US4904697A, “Controlling the growth of certain tumor tissue with chalcone derivatives” (Merrell Dow Pharmaceuticals Inc., priority 1987, dated 1990)
≈ marks a conversion by molar mass, not a printed value. Like-named read-outs stand apart in the source and are kept apart here.

What was measured:
P388 Leukemia = experiment: Survival of P388 leukemia bearing mice; assay type: in vivo
Source text: (§1) The effect of a chalcone derivative of structure 1 to control the growth of tumor tissue can be assessed in standard animal tumor models, for example, in the following animal tumor modes: (a) L1210 leukemia in mice, (b) EMT6 tumor in Balb/C mice, (c) 7,12-dimethylbenzanthracene-induced (DMBA-induced) mammary tumor in rats, and (d) Morris 7288C or 5123 hepatoma in Buffalo rats.
(A) Effect of α-methyl-4-Dimethylamino-2',5'-dimethoxychalcone
on the Survival of P388 Leukemia Bearing Mice
1 × 10^5 P388 leukemia cells/animal were inoculated (i.p.) on
day zero. Compound was suspended in 5% polyvinylpyrrolidone (PVP) and was
administered (i.p.) once daily from day 1-9. The survival of the animals
was noted and the average survival was determined.

B16 Melanoma [1] = experiment: Growth of B16 melanoma in mice (tumor weight); assay type: in vivo; conditions: for TUMOR GROWTH (Mean ± S.E., n = 10): tumors weighed day 18
Source text: as §1
(§2) (B) Effect of α-methyl-4-Dimethylamino-2',5'-dimethoxychalcone On
(§3) the Growth and Survival of B16 Melanoma Bearing Mice
(§4) 1 × 10^5 B16 melanoma cells/animal were injected (s.c.) or
(§5) (i.p.)? on day 0. Compounds suspended in 5 percent polyvinylpyrrolidone
(§6) (PVP) were administered once daily (i.p. ) from day 1-15. For tumor growt
studies the animals were sacrificed on day 18, the tumors were excised,
and weighed. For survival studies the survival days of each animal was […]

B16 Melanoma [2] = experiment: Survival of B16 melanoma bearing mice; assay type: in vivo
Source text: as §1, §2, §3, §4, §5, §6
and weighed. For survival studies the survival days of each animal was
noted and average survival was determined.

L1210 Leukemia = experiment: Survival of L1210 leukemia in mice; assay type: in vivo
Source text: as §1
(C) Effect of α-methyl-4-Dimethylamino-2',5'-dimethoxychalcone
and Other Mitotic Inhibitors on the Survival of L1210 Leukemia in
1 × 10^5 leukemic cells/animal were inoculated (i.p.) on day
zero. The compounds were suspended or dissolved in 5% polyvinylpyrrolidon
(PVP) and administered once daily from day 1-9 (i.p.). The survival of th
animals was noted and average survival was determined.

[3] = system: Human Choriotrophoblast Tumor (JAr); experiment: Growth of human choriotrophoblast tumor (JAr) in athymic mice; assay type: in vivo
Source text: as §1
(D) Effect of α-methyl-4-Dimethylamino-2',5'-
dimethoxychalcone On the Growth of Human
Choriotrophoblast Tumor (JAr) In Athymic Mice
JAr cells (1.5 × 10^6 cells/animal) were injected (s.c.) on day
zero. The compound, 4dimethylamino-2',5dimethoxychalcone, was suspended i
5 per cent polyvinylpyrrolidone (PVP) and administered (i.p.) once daily
as indicated. At the end of 12 days the animals were sacrificed, tumors

HeLa cells [4] = experiment: Mitotic accumulation (mitotic arrest) of HeLa cells; assay type: cell-based; conditions: Homo sapiens, read-out: MITOTIC ARREST Minimum Effectice Concentration
Method: Exponentially growing human carcinoma (HeLa) cells are plated at a densit
of 1 × 10^4 cells/well in a 24 well plate. The compounds were
dissolved in dimethylsulfoxide and diluted with complete medium. The cell
were innoculated with the medium containing the test compound either for
hours or 1 hour. For the 1 hour test, the cells were washed twice and
further grown for 18 hours in the presence of drug free medium. The
mitotic cells in the supernatent were collected and were pooled with the
trypsinized cells and cytopreps were made on slides using a
cytocentrifuge. The slides were fixed with Carnoy's solution, stained wit
acetoorcein, and the mitotic index was determined.

[5] = Experimental Allergic Encephalomyelitis (EAE) in rats; assay type: in vivo, rats (Lewis strain); conditions: 25.0 mg/kg s.c. once every other day, day 1 through 10
Source text: The compounds of structure 1 inhibit the destruction of myelin sheath surrounding the axons of the central nervous system. This myelin destruction is characteristic in those individuals suffering from multiple sclerosis. By preventing the destruction of myelin in multiple sclerosis patients, the compounds of structure 1 will prevent or reduce the progressive nature of the disease, prevent or increase the length of time between the recurrent episodes of the disease, and prevent or suppress the formation of the scarlike, multiple sclerotic plaques characteristic of the disease. […] This myelin brings about an immune response in the individual in which the myelin sheath is destroyed. EAE is an experimental model of multiple sclerosis.
Effect of α-methyl-4-dimethylamino-2',5'-dimethoxychalcone on
Experimental Allergic Encephalomyelitis (EAE) In Rats
EAE was induced in rats as described by Rosenthal and Nagra, Proc. Soc.
Exp. Biol. Med. 125, 149 (1967). Lewis strain rats ranging in weight from
100-200 g were sensitized with encephalitogenic emulsion consisting of
homogenized spinal cord in complete Freund's adjuvant. The test compound
and hydrocortisone (HC) were administered in polyvinylpyrrolidone vehicle
The test compound was administered i.p. once daily from day 1 through day
10. […]
10. The incidence of paralysis was recorded and mean paralysis time was […]

HeLa cells [6] = experiment: Growth inhibition of HeLa cells; assay type: cell-based; conditions: Homo sapiens, 72 h, read-out: GROWTH INHIBITION IC50
Method: For growth inhibition studies, exponentially growing HeLa cells were
incubated at a density of 1 × 10^5 cells/35 mm dish with a
number of dilutions of the test compound in the medium. The plates were
incubated at 37° C. in a CO2 incubation. At the end of 72
hours the cells were collected by trypinization and counted and the […]

[7] = 25 mg/kg i.p. once daily day 1-9
[8] = 50 mg/kg i.p. once daily day 1-9
[9] = 12.5 mg/kg i.p. once daily day 1-15
[10] = 25 mg/kg i.p. once daily day 1-15
[11] = 50 mg/kg i.p. once daily day 1-15
[12] = 6.25 mg/kg i.p. once daily day 1-9
[13] = 12.5 mg/kg i.p. once daily day 1-9
[14] = 25.0 mg/kg i.p. once daily day 1-9
[15] = 50.0 mg/kg i.p. once daily day 1-9
[16] = 25 mg/kg i.p. once daily, day 1-11
[17] = 25 mg/kg i.p. once daily, day 7-11
[18] = 50 mg/kg i.p. once daily, day 1-11
[19] = 50 mg/kg i.p. once daily, day 7-11
[20] = 0.2 mg/kg i.p. once daily day 1-15
[21] = 0.20 mg/kg i.p. once daily day 1-9

COc1ccc(OC)c(C(=O)C(C)=Cc2ccc(N(C)C)cc2)c1 [1-(2,5-dimethoxyphenyl)-3-[4-(dimethylamino)phenyl]-2-methyl-2-propen-1-one]
PERCENT T/C (survival) (P388 Leukemia; [7]): 142%
SURVIVAL TIME (Mean ± S.E., n = 10) (P388 Leukemia; [7]): 16.0 ± 1.5 days
PERCENT T/C (survival) (P388 Leukemia; [8]): 141%
SURVIVAL TIME (Mean ± S.E., n = 10) (P388 Leukemia; [8]): 15.8 ± 0.5 days
PERCENT INHIBITION (tumor growth) (B16 Melanoma [1]; [9]): 30%
TUMOR GROWTH (Mean ± S.E., n = 10) (B16 Melanoma [1]; [9]): 4.66 ± 0.56 g
PERCENT INHIBITION (tumor growth) (B16 Melanoma [1]; [10]): 32%
TUMOR GROWTH (Mean ± S.E., n = 10) (B16 Melanoma [1]; [10]): 4.5 ± 0.70 g
PERCENT INHIBITION (tumor growth) (B16 Melanoma [1]; [11]): 45%
TUMOR GROWTH (Mean ± S.E., n = 10) (B16 Melanoma [1]; [11]): 3.66 ± 0.83 g
PERCENT T/C (survival) (B16 Melanoma [2]; [9]): 146%
SURVIVAL (MEAN ± S.E., n = 10) (B16 Melanoma [2]; [9]): 20.4 ± 1.5 days
PERCENT T/C (survival) (B16 Melanoma [2]; [10]): 183%
SURVIVAL (MEAN ± S.E., n = 10) (B16 Melanoma [2]; [10]): 25.6 ± 4.8 days
PERCENT T/C (survival) (L1210 Leukemia; [12]): 126%
SURVIVAL TIME (Mean ± S.E., n = 20) (L1210 Leukemia; [12]): 8.8 ± 0.2 days
PERCENT T/C (survival) (L1210 Leukemia; [13]): 137%
SURVIVAL TIME (Mean ± S.E., n = 20) (L1210 Leukemia; [13]): 9.6 ± 0.3 days
PERCENT T/C (survival) (L1210 Leukemia; [14]): 146%
SURVIVAL TIME (Mean ± S.E., n = 20) (L1210 Leukemia; [14]): 10.2 ± 0.2 days
PERCENT T/C (survival) (L1210 Leukemia; [15]): 154%
SURVIVAL TIME (Mean ± S.E., n = 20) (L1210 Leukemia; [15]): 10.8 ± 0.4 days
PERCENT INHIBITION (tumor weight) [3, 16]: 29%
TUMOR WEIGHT (Means ± S.E., n = 6) [3, 16]: 2.86 ± 0.38 g
PERCENT INHIBITION (tumor weight) [3, 17]: 21%
TUMOR WEIGHT (Means ± S.E., n = 6) [3, 17]: 3.19 ± 0.61 g
PERCENT INHIBITION (tumor weight) [3, 18]: 65%
TUMOR WEIGHT (Means ± S.E., n = 6) [3, 18]: 1.41 ± 0.32 g
PERCENT INHIBITION (tumor weight) [3, 19]: 31%
TUMOR WEIGHT (Means ± S.E., n = 6) [3, 19]: 2.70 ± 0.36 g
minimal effective concentration (HeLa cells [4]; 1 hour, then washed and grown 18 hours in drug free medium): 0.06 µg/mL
minimal effective concentration (HeLa cells [4]; 6 hours): 0.0038 µg/mL

C[C@]12CCC(=O)C=C1CC[C@@H]1[C@@H]2[C@@H](O)C[C@@]2(C)[C@H]1CC[C@]2(O)C(=O)CO [HYDROCORTISONE, hydrocortisone]
PERCENT INCIDENCE OF PARALYSIS [5]: 74%
PARALYSIS TIME (Mean ± S.E.) ([5]; significant at p < 0.01): 11.0 ± 0.28 days

CC[C@]1(O)C[C@@H]2CN(CCc3c([nH]c4ccccc34)[C@@](C(=O)OC)(c3cc4c(cc3OC)N(C)[C@H]3[C@@](O)(C(=O)OC)[C@H](OC(C)=O)[C@]5(CC)C=CCN6CC[C@]43[C@@H]65)C2)C1 [VINBLASTINE, vinblastine, reference compound]
PERCENT T/C (survival) (B16 Melanoma [2]; [20]): 180%
SURVIVAL (MEAN ± S.E., n = 10) (B16 Melanoma [2]; [20]): 25.2 ± 2.3 days
PERCENT T/C (survival) (L1210 Leukemia; [21]): 140%
SURVIVAL TIME (Mean ± S.E., n = 20) (L1210 Leukemia; [21]): 9.8 ± 0.4 days
minimal effective concentration (HeLa cells [4]; 6 h): 0.0015 µg/mL
IC50 (HeLa cells [6]): 0.015 µg/mL (≈ 0.0185 µM)

CC[C@]1(O)C[C@H]2CN(CCc3c([nH]c4ccccc34)[C@@](C(=O)OC)(c3cc4c(cc3OC)N(C=O)[C@H]3[C@@](O)(C(=O)OC)[C@H](OC(C)=O)[C@]5(CC)C=CCN6CC[C@]43[C@@H]65)C2)C1 [VINCRISTINE, vincristine, reference compound]
PERCENT T/C (survival) (L1210 Leukemia; [21]): 146%
SURVIVAL TIME (Mean ± S.E., n = 20) (L1210 Leukemia; [21]): 10.2 ± 0.4 days
